Reference: patent publication US12545639B2, “3-substituted phenylamidine compounds, preparation and use thereof” (PI INDUSTRIES LTD., priority 2019, dated 2026)

What was measured:
[1] = tested on: Septoria lycopersici/Corynespora cassicola (CORYCA); experiment: Septoria lycopersici/Corynespora cassicola (CORYCA) (leaf spot of tomato) in vitro test, radial growth on potato dextrose agar; assay type: cell-based; settings: 168 h, 300 ppm in potato dextrose agar, 25° C., 70% relative humidity, seven days, read-out: control compared to the untreated check (radial growth)
Alternaria solani = Alternaria solani (early blight of tomato/potato) in vitro test, radial growth on potato dextrose agar; assay type: cell-based; settings: 168 h, 300 ppm in potato dextrose agar, 25° C., 60% relative humidity, seven days, read-out: control compared to the untreated check (radial growth)
Rhizoctonia solani = Rhizoctonia solani (rice sheath blight/potato black scurf) in vitro test, radial growth on potato dextrose agar; assay type: cell-based; settings: 168 h, 300 ppm in potato dextrose agar, 25° C., 60% relative humidity, seven days, read-out: control compared to the untreated check (radial growth)
Pyricularia oryzae = experiment: microbe, parasite or virus in culture; assay type: cell-based; settings: 168 h, read-out: control compared to the untreated check (radial growth)
Botrytis cinerea = Botrytis cinerea (gray mold) in vitro test, radial growth on potato dextrose agar; assay type: cell-based; settings: 168 h, 300 ppm in potato dextrose agar, 22° C., 90% relative humidity, seven days, read-out: control compared to the untreated check (radial growth)
Fusarium culmorum = Fusarium culmorum (foot rot of cereals) in vitro test, radial growth on potato dextrose agar; assay type: cell-based; settings: 168 h, 300 ppm in potato dextrose agar, 25° C., 60% relative humidity, seven days, read-out: control compared to the untreated check (radial growth)
Method: Compounds were dissolved in 0.3% dimethyl sulfoxide and then added to potato dextrose agar medium just prior to dispensing it into petri dishes. 5 mL medium with the compound in the desired concentration was dispensed into 60 mm sterile petri-plates. After solidification each plate was seeded with a 5 mm size mycelial disc taken from the periphery of an actively growing virulent culture plate. Plates were incubated in growth chambers at 25° C. temperature and 60% relative humidity for seven days and then the radial growth was measured and compared to that of the untreated control.

Phakopsora pachyrhizi = Phakopsora pachyrhizi test in soybean, preventive, in vivo on plants; settings: in Glycine max, read-out: Efficacy (% control), disease severity compared to the untreated check
Colletotrichum capsici = Colletotrichum capsici (anthracnose) in vitro test, radial growth on potato dextrose agar; assay type: cell-based; settings: Colletotrichum truncatum, 168 h; 300 ppm in potato dextrose agar; 25° C., 60% relative humidity, seven days; read-out: control compared to the untreated check (radial growth)

CCN(C)C=Nc1cc(F)cc(Cc2ccccc2Cl)c1C [Compound 142, N′-(3-(2-chlorobenzyl)-5-fluoro-2-methylphenyl)-N-ethyl-N-methylformimidamide]
≥ 70%: inhibition of growth at 300 ppm [1] | inhibition of growth at 300 ppm (Alternaria solani) | inhibition of growth at 300 ppm (Rhizoctonia solani) | inhibition of growth at 300 ppm (Pyricularia oryzae) | inhibition of growth at 300 ppm (Botrytis cinerea) | inhibition of growth at 300 ppm (Fusarium culmorum)

CCN(C)C=Nc1cc(OC)cc(Cc2cc(C)cc(F)c2)c1C [Compound 292, N-ethyl-N′-(3-(3-fluoro-5-methylbenzyl)-5-methoxy-2-methylphenyl)-N-methylformimidamide]
≥ 70%: inhibition of growth at 300 ppm [1] | inhibition of growth at 300 ppm (Alternaria solani) | inhibition of growth at 300 ppm (Rhizoctonia solani) | inhibition of growth at 300 ppm (Pyricularia oryzae) | inhibition of growth at 300 ppm (Botrytis cinerea) | inhibition of growth at 300 ppm (Fusarium culmorum)

CCN(C)C=Nc1cc(OC)cc(Cc2ccccc2F)c1C [Compound 266, N-ethyl-N′-(3-(2-fluorobenzyl)-5-methoxy-2-methylphenyl)-N-methylformimidamide]
≥ 70%: inhibition of growth at 300 ppm [1] | inhibition of growth at 300 ppm (Alternaria solani) | inhibition of growth at 300 ppm (Rhizoctonia solani) | inhibition of growth at 300 ppm (Pyricularia oryzae) | pest or weed control at 500 ppm (Phakopsora pachyrhizi) | inhibition of growth at 300 ppm (Fusarium culmorum)

CCN(C)C=Nc1cc(OC)cc(Cc2ccccc2C(F)(F)F)c1C [Compound 307, N-ethyl-N′-(5-methoxy-2-methyl-3-(2-(trifluoromethyl)benzyl)phenyl)-N-methylformimidamide]
≥ 70%: inhibition of growth at 300 ppm [1] | inhibition of growth at 300 ppm (Alternaria solani) | inhibition of growth at 300 ppm (Rhizoctonia solani) | inhibition of growth at 300 ppm (Pyricularia oryzae) | inhibition of growth at 300 ppm (Botrytis cinerea) | inhibition of growth at 300 ppm (Fusarium culmorum)

CCN(C)C=Nc1cc(Cl)cc(Cc2cc(C)c(F)c(C)c2)c1C [Compound 87, N′-(5-chloro-3-(4-fluoro-3,5-dimethylbenzyl)-2-methylphenyl)-N-ethyl-N-methylformimidamide]
≥ 70%: inhibition of growth at 300 ppm (Alternaria solani) | inhibition of growth at 300 ppm (Rhizoctonia solani) | inhibition of growth at 300 ppm (Pyricularia oryzae) | pest or weed control at 500 ppm (Phakopsora pachyrhizi) | inhibition of growth at 300 ppm (Botrytis cinerea) | inhibition of growth at 300 ppm (Fusarium culmorum)

CCN(C)C=Nc1cc(C)cc(Cc2ccc(F)c(F)c2)c1Cl [Compound 67, N′-(2-chloro-3-(3,4-difluorobenzyl)-5-methylphenyl)-N-ethyl-N-methylformimidamide]
≥ 70%: inhibition of growth at 300 ppm [1] | inhibition of growth at 300 ppm (Colletotrichum capsici) | inhibition of growth at 300 ppm (Alternaria solani) | inhibition of growth at 300 ppm (Rhizoctonia solani) | inhibition of growth at 300 ppm (Pyricularia oryzae) | pest or weed control at 500 ppm (Phakopsora pachyrhizi) | inhibition of growth at 300 ppm (Botrytis cinerea)

CCN(C)C=Nc1cc(Cl)cc(Cc2ccccc2)c1C [Compound 79, N′-(3-benzyl-5-chloro-2-methylphenyl)-N-ethyl-N-methylformimidamide]
≥ 70%: inhibition of growth at 300 ppm [1] | inhibition of growth at 300 ppm (Colletotrichum capsici) | inhibition of growth at 300 ppm (Alternaria solani) | inhibition of growth at 300 ppm (Rhizoctonia solani) | inhibition of growth at 300 ppm (Pyricularia oryzae) | pest or weed control at 500 ppm (Phakopsora pachyrhizi) | inhibition of growth at 300 ppm (Botrytis cinerea)

CCN(C)C=Nc1cc(Cl)cc(N(C)c2ncccn2)c1C [Compound 214, N′-(5-chloro-2-methyl-3-(methyl(pyrimidin-2-yl)amino)phenyl)-N-ethyl-N-methylformimidamide]
≥ 70%: inhibition of growth at 300 ppm [1] | inhibition of growth at 300 ppm (Alternaria solani) | inhibition of growth at 300 ppm (Rhizoctonia solani) | inhibition of growth at 300 ppm (Pyricularia oryzae) | pest or weed control at 500 ppm (Phakopsora pachyrhizi) | inhibition of growth at 300 ppm (Fusarium culmorum)

CCN(C)C=Nc1cc(OC)cc(N(C)c2ccc(OC)c(F)c2)c1C [Compound 271, N-ethyl-N′-(3-((3-fluoro-4-methoxyphenyl)(methyl)amino)-5-methoxy-2-methylphenyl)-N-methylformimidamide]
≥ 70%: inhibition of growth at 300 ppm [1] | inhibition of growth at 300 ppm (Alternaria solani) | inhibition of growth at 300 ppm (Pyricularia oryzae) | inhibition of growth at 300 ppm (Fusarium culmorum)

CCN(C)C=Nc1cc(C)cc(Nc2c(C)cccc2F)c1Cl [Compound 133, N′-(2-chloro-3-((2-fluoro-6-methylphenyl)amino)-5-methylphenyl)-N-ethyl-N-methylformimidamide]
≥ 70%: inhibition of growth at 300 ppm [1] | inhibition of growth at 300 ppm (Colletotrichum capsici) | inhibition of growth at 300 ppm (Alternaria solani) | inhibition of growth at 300 ppm (Rhizoctonia solani) | inhibition of growth at 300 ppm (Pyricularia oryzae) | pest or weed control at 500 ppm (Phakopsora pachyrhizi) | inhibition of growth at 300 ppm (Botrytis cinerea)

CCN(C)C=Nc1cc(F)cc(Cc2ccc(F)c(C)c2)c1C [Compound 203, N-ethyl-N′-(5-fluoro-3-(4-fluoro-3-methylbenzyl)-2-methylphenyl)-N-methylformimidamide]
≥ 70%: inhibition of growth at 300 ppm [1] | inhibition of growth at 300 ppm (Colletotrichum capsici) | inhibition of growth at 300 ppm (Alternaria solani) | inhibition of growth at 300 ppm (Rhizoctonia solani) | inhibition of growth at 300 ppm (Pyricularia oryzae) | pest or weed control at 500 ppm (Phakopsora pachyrhizi) | inhibition of growth at 300 ppm (Botrytis cinerea)

CCN(C)C=Nc1cc(Cl)cc(Cc2ccccc2F)c1C [Compound 103, N′-(5-chloro-3-(2-fluorobenzyl)-2-methylphenyl)-N-ethyl-N-methylformimidamide]
≥ 70%: inhibition of growth at 300 ppm [1] | inhibition of growth at 300 ppm (Colletotrichum capsici) | inhibition of growth at 300 ppm (Alternaria solani) | inhibition of growth at 300 ppm (Rhizoctonia solani) | inhibition of growth at 300 ppm (Pyricularia oryzae) | pest or weed control at 500 ppm (Phakopsora pachyrhizi) | inhibition of growth at 300 ppm (Botrytis cinerea)

CCN(C)C=Nc1cc(C)cc(Nc2ccc(F)cc2)c1Cl [Compound 60, N′-(2-chloro-3-((4-fluorophenyl)amino)-5-methylphenyl)-N-ethyl-N-methylformimidamide]
≥ 70%: inhibition of growth at 300 ppm [1] | inhibition of growth at 300 ppm (Colletotrichum capsici) | inhibition of growth at 300 ppm (Alternaria solani) | inhibition of growth at 300 ppm (Rhizoctonia solani) | inhibition of growth at 300 ppm (Pyricularia oryzae) | pest or weed control at 500 ppm (Phakopsora pachyrhizi) | inhibition of growth at 300 ppm (Botrytis cinerea)

CCN(C)C=Nc1cc(C)cc(Cc2c(F)cccc2Cl)c1Cl [Compound 92, N′-(2-chloro-3-(2-chloro-6-fluorobenzyl)-5-methylphenyl)-N-ethyl-N-methylformimidamide]
≥ 70%: inhibition of growth at 300 ppm [1] | inhibition of growth at 300 ppm (Colletotrichum capsici) | inhibition of growth at 300 ppm (Alternaria solani) | inhibition of growth at 300 ppm (Rhizoctonia solani) | inhibition of growth at 300 ppm (Pyricularia oryzae) | pest or weed control at 500 ppm (Phakopsora pachyrhizi) | inhibition of growth at 300 ppm (Botrytis cinerea)
